Test results from patent US10231954B2, “Neurodegenerative therapies” (LYTIX BIOPHARMA AS, priority 2014, dated 2019).

Key:
Type in all cases: biochemical
MNK2 = MNK2 (Homo sapiens, UniProt Q9HBH9); experiment: Kinase profiling MNK2; conditions: 100 micromolar inhibitor concentration, 100 is no change; for remaining activity at 100 µM: read-out: residual kinase activity, MNK2
Excerpt: (§1) Any value less that 25 is considered to be highly significant inhibition.

MAPKAP-K3 = MAPKAP-K3 (Homo sapiens, UniProt Q16644); experiment: Kinase profiling MAPKAP-K3; conditions: 100 micromolar inhibitor concentration, 100 is no change; for remaining activity at 100 µM: read-out: residual kinase activity, MAPKAP-K3
MAPKAP-K3, sequence (Q16644 whole entry, species assumed): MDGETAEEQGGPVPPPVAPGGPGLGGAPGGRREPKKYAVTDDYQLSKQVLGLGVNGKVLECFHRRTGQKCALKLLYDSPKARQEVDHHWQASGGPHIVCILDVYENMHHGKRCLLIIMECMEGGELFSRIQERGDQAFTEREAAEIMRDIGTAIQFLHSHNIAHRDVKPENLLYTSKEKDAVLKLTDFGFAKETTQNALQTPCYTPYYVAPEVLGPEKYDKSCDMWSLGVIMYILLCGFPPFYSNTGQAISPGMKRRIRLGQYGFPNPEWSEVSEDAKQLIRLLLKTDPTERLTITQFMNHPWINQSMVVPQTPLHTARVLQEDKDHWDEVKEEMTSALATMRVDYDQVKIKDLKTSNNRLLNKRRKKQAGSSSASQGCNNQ
Excerpt: as §1

CDK9-Cyclin T1 = CDK9-Cyclin T1 (Homo sapiens, UniProt P50750); experiment: Kinase profiling CDK9-Cyclin T1; conditions: 100 micromolar inhibitor concentration, 100 is no change; for remaining activity at 100 µM: read-out: residual kinase activity, CDK9-Cyclin T1
Excerpt: as §1

SIK2 = SIK2 (Homo sapiens, UniProt Q9H0K1); experiment: Kinase profiling SIK2; conditions: 100 micromolar inhibitor concentration, 100 is no change; for remaining activity at 100 µM: read-out: residual kinase activity, SIK2
SIK2, sequence (Q9H0K1 whole entry, species assumed): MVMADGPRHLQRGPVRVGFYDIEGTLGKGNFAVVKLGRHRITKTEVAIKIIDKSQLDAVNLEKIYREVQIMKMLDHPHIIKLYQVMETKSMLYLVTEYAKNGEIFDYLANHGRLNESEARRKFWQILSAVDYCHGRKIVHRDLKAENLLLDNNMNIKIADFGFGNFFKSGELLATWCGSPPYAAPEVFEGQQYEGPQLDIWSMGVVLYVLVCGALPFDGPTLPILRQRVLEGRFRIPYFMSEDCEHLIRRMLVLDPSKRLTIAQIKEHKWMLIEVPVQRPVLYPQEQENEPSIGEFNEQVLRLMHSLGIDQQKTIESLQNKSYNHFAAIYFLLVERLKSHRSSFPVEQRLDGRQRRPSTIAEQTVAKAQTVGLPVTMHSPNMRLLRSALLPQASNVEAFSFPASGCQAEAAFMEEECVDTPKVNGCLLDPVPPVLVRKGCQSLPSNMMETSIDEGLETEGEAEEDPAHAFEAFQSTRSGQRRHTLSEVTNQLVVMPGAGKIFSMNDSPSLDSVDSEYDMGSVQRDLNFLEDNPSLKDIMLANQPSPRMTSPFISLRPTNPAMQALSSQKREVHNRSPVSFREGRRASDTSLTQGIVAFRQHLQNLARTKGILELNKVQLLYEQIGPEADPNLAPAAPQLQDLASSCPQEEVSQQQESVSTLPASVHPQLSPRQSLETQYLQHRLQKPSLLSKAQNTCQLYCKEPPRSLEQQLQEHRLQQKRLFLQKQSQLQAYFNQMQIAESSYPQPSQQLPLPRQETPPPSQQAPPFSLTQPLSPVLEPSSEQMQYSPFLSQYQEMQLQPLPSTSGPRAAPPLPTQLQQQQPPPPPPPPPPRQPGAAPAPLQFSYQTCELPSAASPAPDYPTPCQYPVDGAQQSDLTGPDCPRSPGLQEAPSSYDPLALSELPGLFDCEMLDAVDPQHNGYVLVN
Excerpt: as §1

SIK3 = SIK3 (Homo sapiens, UniProt Q9Y2K2); experiment: Kinase profiling SIK3; conditions: 100 micromolar inhibitor concentration, 100 is no change; for remaining activity at 100 µM: read-out: residual kinase activity, SIK3
SIK3, sequence (Q9Y2K2 whole entry, species assumed): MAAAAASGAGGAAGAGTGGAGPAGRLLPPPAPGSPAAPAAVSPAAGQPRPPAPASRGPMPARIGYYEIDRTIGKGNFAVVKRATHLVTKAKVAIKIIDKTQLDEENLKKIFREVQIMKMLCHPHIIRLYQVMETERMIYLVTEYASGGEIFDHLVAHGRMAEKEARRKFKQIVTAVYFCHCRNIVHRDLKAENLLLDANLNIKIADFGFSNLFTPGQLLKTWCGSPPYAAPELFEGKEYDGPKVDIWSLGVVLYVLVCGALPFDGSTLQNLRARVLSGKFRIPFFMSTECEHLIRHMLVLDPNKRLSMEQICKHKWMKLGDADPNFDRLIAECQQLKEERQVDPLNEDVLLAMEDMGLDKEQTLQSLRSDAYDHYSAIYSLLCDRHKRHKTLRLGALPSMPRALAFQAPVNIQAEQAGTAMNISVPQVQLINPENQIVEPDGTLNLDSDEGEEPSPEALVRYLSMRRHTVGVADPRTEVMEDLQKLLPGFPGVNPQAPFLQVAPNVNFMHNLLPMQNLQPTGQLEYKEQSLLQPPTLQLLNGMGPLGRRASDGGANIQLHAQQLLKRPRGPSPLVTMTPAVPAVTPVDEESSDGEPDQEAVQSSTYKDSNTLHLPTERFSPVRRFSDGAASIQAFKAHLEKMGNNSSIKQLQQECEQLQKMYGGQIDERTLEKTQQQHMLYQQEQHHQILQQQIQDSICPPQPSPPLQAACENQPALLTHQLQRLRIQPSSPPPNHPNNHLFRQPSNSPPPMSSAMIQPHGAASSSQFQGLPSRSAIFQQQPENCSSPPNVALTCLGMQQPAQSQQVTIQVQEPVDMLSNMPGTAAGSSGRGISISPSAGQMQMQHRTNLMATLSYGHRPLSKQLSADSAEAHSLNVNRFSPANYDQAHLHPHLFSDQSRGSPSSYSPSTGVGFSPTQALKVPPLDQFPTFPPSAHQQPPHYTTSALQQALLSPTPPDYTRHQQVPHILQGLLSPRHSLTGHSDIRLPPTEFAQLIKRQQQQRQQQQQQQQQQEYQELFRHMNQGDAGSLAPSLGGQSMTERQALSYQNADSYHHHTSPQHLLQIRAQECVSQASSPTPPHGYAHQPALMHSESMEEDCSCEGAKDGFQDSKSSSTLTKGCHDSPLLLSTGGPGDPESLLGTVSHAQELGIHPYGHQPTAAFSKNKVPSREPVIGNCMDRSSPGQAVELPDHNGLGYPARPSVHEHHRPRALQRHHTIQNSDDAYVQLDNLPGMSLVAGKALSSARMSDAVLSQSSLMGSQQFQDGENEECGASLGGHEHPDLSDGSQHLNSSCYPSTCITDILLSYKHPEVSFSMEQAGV
Excerpt: as §1

MAP4K5 = MAP4K5 (Homo sapiens, UniProt Q9Y4K4); experiment: Kinase profiling MAP4K5; conditions: 100 micromolar inhibitor concentration, 100 is no change; for remaining activity at 100 µM: read-out: residual kinase activity, MAP4K5
MAP4K5, sequence (Q9Y4K4 whole entry, species assumed): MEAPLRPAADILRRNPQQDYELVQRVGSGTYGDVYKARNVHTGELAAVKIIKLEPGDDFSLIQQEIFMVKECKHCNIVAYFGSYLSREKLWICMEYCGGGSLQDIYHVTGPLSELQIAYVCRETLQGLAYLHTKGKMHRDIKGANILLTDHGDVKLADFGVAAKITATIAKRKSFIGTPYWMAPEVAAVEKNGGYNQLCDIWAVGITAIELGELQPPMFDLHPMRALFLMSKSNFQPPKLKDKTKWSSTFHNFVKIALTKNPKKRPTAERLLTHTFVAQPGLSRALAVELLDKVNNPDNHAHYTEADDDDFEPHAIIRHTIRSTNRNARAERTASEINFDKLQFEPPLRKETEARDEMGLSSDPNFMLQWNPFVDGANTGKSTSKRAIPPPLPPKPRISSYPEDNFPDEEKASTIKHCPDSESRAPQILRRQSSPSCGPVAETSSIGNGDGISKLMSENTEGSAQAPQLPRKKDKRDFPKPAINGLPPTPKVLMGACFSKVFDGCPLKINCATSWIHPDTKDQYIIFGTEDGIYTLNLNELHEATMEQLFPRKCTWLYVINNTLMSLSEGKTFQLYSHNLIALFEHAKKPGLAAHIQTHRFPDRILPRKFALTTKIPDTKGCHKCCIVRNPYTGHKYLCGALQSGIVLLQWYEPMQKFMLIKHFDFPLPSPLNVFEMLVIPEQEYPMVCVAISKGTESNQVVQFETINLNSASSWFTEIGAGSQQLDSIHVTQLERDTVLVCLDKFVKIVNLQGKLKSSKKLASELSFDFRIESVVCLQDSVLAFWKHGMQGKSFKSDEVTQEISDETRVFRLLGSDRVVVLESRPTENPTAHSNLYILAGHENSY
Excerpt: as §1

IRAK1 = IRAK1 (Homo sapiens, UniProt P51617); experiment: Kinase profiling IRAK1; conditions: 100 micromolar inhibitor concentration, 100 is no change; for remaining activity at 100 µM: read-out: residual kinase activity, IRAK1
IRAK1, sequence (P51617 whole entry, species assumed): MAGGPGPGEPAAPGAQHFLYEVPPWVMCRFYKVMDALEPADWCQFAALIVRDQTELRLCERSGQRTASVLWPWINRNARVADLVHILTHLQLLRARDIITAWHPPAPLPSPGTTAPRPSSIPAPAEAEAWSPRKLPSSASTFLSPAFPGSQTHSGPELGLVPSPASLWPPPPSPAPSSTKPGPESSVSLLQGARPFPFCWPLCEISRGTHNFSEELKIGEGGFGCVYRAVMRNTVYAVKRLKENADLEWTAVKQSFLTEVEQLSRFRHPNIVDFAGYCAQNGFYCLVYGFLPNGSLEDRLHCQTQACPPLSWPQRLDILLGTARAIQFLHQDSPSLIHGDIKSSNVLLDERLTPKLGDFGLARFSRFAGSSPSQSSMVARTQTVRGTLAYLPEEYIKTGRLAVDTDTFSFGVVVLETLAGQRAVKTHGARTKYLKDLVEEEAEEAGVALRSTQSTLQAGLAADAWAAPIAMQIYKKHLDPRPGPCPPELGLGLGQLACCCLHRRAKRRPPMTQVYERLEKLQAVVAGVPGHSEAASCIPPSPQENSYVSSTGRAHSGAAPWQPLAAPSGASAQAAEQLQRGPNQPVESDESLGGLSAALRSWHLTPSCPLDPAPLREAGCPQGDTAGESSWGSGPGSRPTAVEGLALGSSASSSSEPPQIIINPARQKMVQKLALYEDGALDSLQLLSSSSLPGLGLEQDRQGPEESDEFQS
Excerpt: as §1

OSR1 = OSR1 (Homo sapiens, UniProt O95747); experiment: Kinase profiling OSR1; conditions: 100 micromolar inhibitor concentration, 100 is no change; for remaining activity at 100 µM: read-out: residual kinase activity, OSR1
Excerpt: as §1

CSK = CSK (Homo sapiens, UniProt P41240); experiment: Kinase profiling CSK; conditions: 100 micromolar inhibitor concentration, 100 is no change; for remaining activity at 100 µM: read-out: residual kinase activity, CSK
Excerpt: as §1

EPH-B4 = target: T1, EPH-B4 (Homo sapiens, UniProt P54760); experiment: Kinase profiling EPH-B4; conditions: 100 micromolar inhibitor concentration, 100 is no change; for remaining activity at 100 µM: read-out: residual kinase activity, EPH-B4
T1 sequence (P54760 16-987): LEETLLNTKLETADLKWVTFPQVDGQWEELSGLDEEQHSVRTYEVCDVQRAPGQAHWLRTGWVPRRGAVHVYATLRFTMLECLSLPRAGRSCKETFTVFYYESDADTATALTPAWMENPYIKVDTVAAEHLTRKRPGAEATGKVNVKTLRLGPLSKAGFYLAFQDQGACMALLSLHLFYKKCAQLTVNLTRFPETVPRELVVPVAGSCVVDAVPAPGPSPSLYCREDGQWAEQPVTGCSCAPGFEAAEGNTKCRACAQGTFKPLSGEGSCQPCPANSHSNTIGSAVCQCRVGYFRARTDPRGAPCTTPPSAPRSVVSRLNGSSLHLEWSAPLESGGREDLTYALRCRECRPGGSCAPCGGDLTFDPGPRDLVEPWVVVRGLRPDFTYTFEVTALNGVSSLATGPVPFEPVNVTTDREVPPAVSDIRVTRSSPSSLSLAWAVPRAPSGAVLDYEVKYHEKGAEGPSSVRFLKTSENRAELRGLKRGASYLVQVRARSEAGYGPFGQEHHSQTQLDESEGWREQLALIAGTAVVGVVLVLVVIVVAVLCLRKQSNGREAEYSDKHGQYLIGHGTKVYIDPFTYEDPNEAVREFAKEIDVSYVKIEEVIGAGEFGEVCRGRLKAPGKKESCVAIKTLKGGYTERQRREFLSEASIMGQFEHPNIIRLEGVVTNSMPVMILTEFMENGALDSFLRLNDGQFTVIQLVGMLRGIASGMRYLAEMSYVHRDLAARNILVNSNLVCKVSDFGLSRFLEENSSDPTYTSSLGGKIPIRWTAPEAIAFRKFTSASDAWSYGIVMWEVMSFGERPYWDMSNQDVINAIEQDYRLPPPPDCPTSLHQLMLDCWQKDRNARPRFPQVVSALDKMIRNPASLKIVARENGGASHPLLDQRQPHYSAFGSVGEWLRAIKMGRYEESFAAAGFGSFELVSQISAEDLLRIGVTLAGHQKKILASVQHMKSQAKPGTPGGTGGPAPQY
Excerpt: as §1

DDR2 = target: T2, DDR2 (Homo sapiens, UniProt Q16832); experiment: Kinase profiling DDR2; conditions: 100 micromolar inhibitor concentration, 100 is no change; for remaining activity at 100 µM: read-out: residual kinase activity, DDR2
T2 sequence (Q16832 22-855): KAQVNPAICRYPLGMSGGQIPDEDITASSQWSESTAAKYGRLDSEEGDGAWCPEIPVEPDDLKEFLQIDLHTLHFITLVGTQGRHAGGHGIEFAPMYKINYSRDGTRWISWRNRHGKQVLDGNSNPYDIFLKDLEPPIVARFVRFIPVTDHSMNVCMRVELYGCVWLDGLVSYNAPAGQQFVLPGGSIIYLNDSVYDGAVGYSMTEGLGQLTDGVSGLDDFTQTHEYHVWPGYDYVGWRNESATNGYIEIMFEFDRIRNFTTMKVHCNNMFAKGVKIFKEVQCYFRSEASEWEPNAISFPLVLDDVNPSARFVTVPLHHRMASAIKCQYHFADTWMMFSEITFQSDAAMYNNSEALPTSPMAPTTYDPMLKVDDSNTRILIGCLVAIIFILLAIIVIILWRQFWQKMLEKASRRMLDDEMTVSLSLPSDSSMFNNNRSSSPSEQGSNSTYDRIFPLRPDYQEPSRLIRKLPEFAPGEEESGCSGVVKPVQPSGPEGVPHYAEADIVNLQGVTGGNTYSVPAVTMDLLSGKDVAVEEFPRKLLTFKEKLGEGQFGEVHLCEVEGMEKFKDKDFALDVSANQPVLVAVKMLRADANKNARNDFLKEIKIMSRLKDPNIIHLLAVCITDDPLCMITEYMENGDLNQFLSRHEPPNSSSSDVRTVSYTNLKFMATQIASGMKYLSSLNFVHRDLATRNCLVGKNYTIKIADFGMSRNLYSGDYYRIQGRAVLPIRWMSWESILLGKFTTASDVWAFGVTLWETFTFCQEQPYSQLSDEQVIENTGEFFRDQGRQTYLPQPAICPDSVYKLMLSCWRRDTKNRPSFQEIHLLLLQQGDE
Excerpt: as §1

MNK2, sequence (Q9HBH9 whole entry, species assumed): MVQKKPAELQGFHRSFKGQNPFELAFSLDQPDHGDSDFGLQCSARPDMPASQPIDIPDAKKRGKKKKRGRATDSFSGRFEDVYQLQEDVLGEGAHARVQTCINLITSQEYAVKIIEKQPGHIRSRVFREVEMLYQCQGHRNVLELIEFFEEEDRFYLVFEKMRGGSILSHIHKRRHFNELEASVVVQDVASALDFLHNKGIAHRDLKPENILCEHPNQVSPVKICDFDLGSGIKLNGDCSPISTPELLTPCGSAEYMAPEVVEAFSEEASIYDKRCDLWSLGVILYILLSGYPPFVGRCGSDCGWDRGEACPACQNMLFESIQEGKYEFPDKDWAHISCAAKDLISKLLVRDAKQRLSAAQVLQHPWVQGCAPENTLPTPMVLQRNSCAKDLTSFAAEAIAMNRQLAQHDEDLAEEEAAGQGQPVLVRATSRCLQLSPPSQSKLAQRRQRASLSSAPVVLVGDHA

Compound | remaining activity at 100 µM (MNK2) | remaining activity at 100 µM (MAPKAP-K3) | remaining activity at 100 µM (CDK9-Cyclin T1) | remaining activity at 100 µM (SIK2) | remaining activity at 100 µM (SIK3) | remaining activity at 100 µM (MAP4K5) | remaining activity at 100 µM (IRAK1) | remaining activity at 100 µM (OSR1) | remaining activity at 100 µM (CSK) | remaining activity at 100 µM (EPH-B4) | remaining activity at 100 µM (DDR2) | further results
CC(=O)Nc1nc2ccc(C#N)cc2s1 [Compound 01-94] | 50% | 101% | 15% | 70% | 73% | 38% | 11% | 79% | 83% | 62% | 93% | –
O=C(Nc1nc2cc(O)ccc2s1)c1ccncc1 [Compound 03-11] | – | – | – | – | – | – | – | – | – | – | – | residual kinase activity, MNK2 (MNK2): 75; residual kinase activity, MAPKAP-K3 (MAPKAP-K3): 68; residual kinase activity, CDK9-Cyclin T1 (CDK9-Cyclin T1): 68; residual kinase activity, SIK2 (SIK2): 79; residual kinase activity, SIK3 (SIK3): 99; residual kinase activity, MAP4K5 (MAP4K5): 92; residual kinase activity, IRAK1 (IRAK1): 68; residual kinase activity, OSR1 (OSR1): 90; residual kinase activity, CSK (CSK): 94; residual kinase activity, EPH-B4 (EPH-B4): 97; residual kinase activity, DDR2 (DDR2): 115
COc1ccc2sc(NC(C)=O)nc2c1 [Compound 03-21] | 84% | 97% | 90% | 89% | 121% | 96% | 45% | 119% | 104% | 98% | 102% | –
CC(=O)Nc1nc2cc(C(F)(F)F)ccc2s1 [Compound 03-73] | 96% | 93% | 97% | 91% | 103% | 73% | 85% | 113% | 91% | 101% | 111% | –
CC(=O)Nc1nc2cc(F)ccc2s1 [Compound 03-77] | 86% | 107% | 46% | 64% | 89% | 65% | 46% | 109% | 98% | 112% | 101% | –
CC(=O)Nc1nc2ccc(C(F)(F)F)cc2s1 [Compound 01-90] | 71% | 101% | 26% | 72% | 82% | 40% | 43% | 75% | 61% | 55% | 62% | –
O=C(Nc1nc2ccc(O)cc2s1)c1cccnc1 [Compound 08-44] | – | – | – | – | – | – | – | – | – | – | – | residual kinase activity, MNK2 (MNK2): 36; residual kinase activity, MAPKAP-K3 (MAPKAP-K3): 38; residual kinase activity, CDK9-Cyclin T1 (CDK9-Cyclin T1): 43; residual kinase activity, SIK2 (SIK2): 68; residual kinase activity, SIK3 (SIK3): 80; residual kinase activity, MAP4K5 (MAP4K5): 81; residual kinase activity, IRAK1 (IRAK1): 37; residual kinase activity, OSR1 (OSR1): 51; residual kinase activity, CSK (CSK): 83; residual kinase activity, EPH-B4 (EPH-B4): 100; residual kinase activity, DDR2 (DDR2): 93
